The values below come from BindingDB's records for doi:10.7270/Q26H4FT9 (Nmmlsc, 2009).

The target in this assay is Cell division control protein 42 homolog (Homo sapiens, UniProt P60953). In words: Cdc42 activated mutant GTP-binding inhibitors, SAR follow-up, biochemical, bead-based multiplex flow cytometry, additional SAR set (AID 2021). Background: Flow cytometry measures light scatter and fluorescence of single cells or particles in a stream.
Chain of Cell division control protein 42 homolog (P60953 whole entry): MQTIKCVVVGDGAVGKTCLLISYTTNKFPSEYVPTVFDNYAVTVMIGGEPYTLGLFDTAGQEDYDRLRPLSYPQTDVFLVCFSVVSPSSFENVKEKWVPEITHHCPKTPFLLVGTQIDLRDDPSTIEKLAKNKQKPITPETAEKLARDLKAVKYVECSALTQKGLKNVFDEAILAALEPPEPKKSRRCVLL

A word on the EC50: it is the midpoint of the concentration-response curve. A lower EC50 goes with greater potency. In the case of `O=C1Nc2c(Br)cccc2C1=C1Nc2ccccc2C1=O`, a half-maximal response (EC50) required 30 µM.
`O=C1NC(=S)N/C1=C1\C(=O)Nc2ccccc21` [(3Z)-3-(5-oxo-2-sulfanylideneimidazolidin-4-ylidene)-1H-indol-2-one] displayed an EC50 of 30 µM.
As for `O=C1Nc2c(Cl)cccc2C1=C1Nc2ccccc2C1=O`, the figure is 30 µM; as for `O=C1N=c2c(Cl)cccc2=C1c1[nH]c2ccccc2c1NO` [7-chloro-3-[3-(hydroxyamino)-1H-indol-2-yl]-2-indolone], 30 µM; as for `O=C1NC(=O)/C(=C2/C(=O)Nc3ccccc32)N1`, 5.26 µM.
`O=C1Nc2ccc(Br)cc2C1=C1Nc2ccccc2C1=O` showed an EC50 of 30 µM.
The value for `O=C1N=c2c(F)cccc2=C1c1[nH]c2ccccc2c1NO` [7-fluoro-3-[3-(hydroxyamino)-1H-indol-2-yl]-2-indolone] was 30 µM.
For the compound `O=C1Nc2ccccc2/C1=C1/Nc2ccccc2C1=O` [2-[(3Z)-2-oxo-2,3-dihydro-1H-indol-3-ylidene]-2,3-dihydro-1H-indol-3-one], the EC50 came out at 30 µM. This counts as double-digit micromolar.
`O=C1N=c2c(Br)cccc2=C1c1[nH]c2ccccc2c1NO` [7-bromanyl-3-[3-(oxidanylamino)-1H-indol-2-yl]indol-2-one] yielded an EC50 of 55.1 µM.
For `O=C1N=c2ccccc2=C1c1[nH]c2ccccc2c1NO` [3-[3-(hydroxyamino)-1H-indol-2-yl]-2-indolone], the response was half-maximal at 30 µM (EC50).
In turn, `O=C1Nc2c(F)cccc2C1=C1Nc2ccccc2C1=O` registered an EC50 of 30 µM.
As to `O=C1N=c2ccc(Br)cc2=C1c1[nH]c2ccccc2c1NO` [5-bromanyl-3-[3-(oxidanylamino)-1H-indol-2-yl]indol-2-one], the EC50 worked out at 30 µM.
